Key:
Male Wistar rats = assay: Chronic Mild Stress Model of Depression (CMS), sucrose intake
Text: CMS uses mild stressors, such as food and water deprivation, small temperature changes, changes of cage mates, etc. Over a period of weeks of exposure to the mild stressors, the animals gradually reduce their consumption of a highly preferred sucrose solution which persists (in untreated animals) for several weeks following the cessation of stress.
Male Wistar rats were brought into the laboratory two months before the start of the experiment at which time they weighed aprroximately 300 grams. Except as described below, the animals were singly housed, with food an eater freely available, and maintained on a 12 hour light/dark cycle (lights on at 8 AM) at a temperature of 22±° C.
The animals were first trained to consume a 1% sucrose solution; training consisted of eight 1 hour baseline tests in which sucrose was presented, in the home cage, following 14 hours food and water deprivation; intake was measured by weighing pre-weighed bottles containing the sucrose solution at the end of the test. Subsequently, sucrose consumption was monitored, under similar conditions, at weekly intervals throughout the whole experiment.
On the basis of their sucrose intakes in the final baseline test, the animals were divided into two matched groups. One group of animals was subjected to a chronic mild stress procedure for a period of 9 consecutive weeks. Each week of stress regime consisted of: two periods of food or water deprivation (12 and 14 hour), two periods of 45 degree cage tilt (12 and 14 h), two periods of intermittent overnight illumination (lights on and off every 2 hours), two 14 hour periods of soled cage (200 ml water in sawdust bedding), two 14 hour periods of paired housing, two 14 hour periods of low intensity stroboscopic illumination (150 flashes/min). Stressors were applied continuously throughout the day and night, and scheduled randomly. […] They were deprived of food and water for the 14 hours preceding each sucrose test, but otherwise food and water were freely available in the home cage. […] All drug injections were in a volume of 1 ml/kg body weight. Drugs were administered at 10 AM and sucrose tests were carried out 24 hours following the last drug treatment. After five weeks, the treatments were terminated and after one week of withdrawal a final sucrose test was carried out. Stress was continued throughout the period of treatment and withdrawal.
Results were analyzed by multiple analysis of variance, followed by Fisher's LSD test for post hoc comparisons of means.

[1] = system: cholinergic M1/M2 receptors; assay: affinity for the cholinergic M1/M2 receptors; type: binding
Text: It is orally active, non-toxic at therapeutic doses and potent. It is also capable of being sealed-up for commercial synthesis. Additionally, neurochemical studies indicate that there is a serotonin/dopamine interaction following chronic administration of this compound as described in Life Sciences 56(25): 2209-2222 (1995), incorporated herein by reference. The combination of the foregoing characteristics produces a unique compound for treating patients having either Depressive Disorders of Bipolar Disorders.

D2 (dopamine) receptor = D2 (dopamine) receptor (Homo sapiens, UniProt P14416); assay: affinity for the D2 (dopamine) receptor in in vitro models; type: binding
D1 (dopamine) receptor = D1 (dopamine) receptor (Homo sapiens, UniProt P21728); assay: affinity for the D1 (dopamine) receptor in in vitro models; type: binding
α-1 receptor = assay: affinity for the α-1 receptor in in vitro models; type: binding

Sequence of D2 (dopamine) receptor (P14416 whole entry): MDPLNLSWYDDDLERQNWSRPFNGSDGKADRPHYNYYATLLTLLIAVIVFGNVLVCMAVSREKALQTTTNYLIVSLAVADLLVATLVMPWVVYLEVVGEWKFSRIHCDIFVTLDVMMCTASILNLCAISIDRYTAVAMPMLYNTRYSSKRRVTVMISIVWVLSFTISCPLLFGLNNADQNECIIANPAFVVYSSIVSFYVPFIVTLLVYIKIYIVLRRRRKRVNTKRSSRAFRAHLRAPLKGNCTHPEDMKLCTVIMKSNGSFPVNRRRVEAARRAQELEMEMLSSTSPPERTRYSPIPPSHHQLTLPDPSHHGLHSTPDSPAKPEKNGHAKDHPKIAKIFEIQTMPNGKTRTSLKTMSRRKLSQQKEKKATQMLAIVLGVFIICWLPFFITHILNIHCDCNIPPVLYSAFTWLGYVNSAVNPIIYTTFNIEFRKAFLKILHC
Sequence of D1 (dopamine) receptor (P21728 whole entry): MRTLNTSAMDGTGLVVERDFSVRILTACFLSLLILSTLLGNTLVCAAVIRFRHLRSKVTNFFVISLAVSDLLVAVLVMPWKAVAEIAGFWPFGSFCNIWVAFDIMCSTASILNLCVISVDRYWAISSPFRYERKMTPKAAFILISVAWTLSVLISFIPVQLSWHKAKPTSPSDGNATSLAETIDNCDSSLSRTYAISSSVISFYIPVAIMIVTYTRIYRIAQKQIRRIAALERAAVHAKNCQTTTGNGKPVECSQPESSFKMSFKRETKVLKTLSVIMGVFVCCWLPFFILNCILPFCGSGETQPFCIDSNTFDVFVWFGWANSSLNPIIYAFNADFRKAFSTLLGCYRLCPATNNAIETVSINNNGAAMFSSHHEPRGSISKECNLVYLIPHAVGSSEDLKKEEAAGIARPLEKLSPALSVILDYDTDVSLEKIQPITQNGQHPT

SMILES: CN(C)CCCN1c2ccccc2CCc2ccccc21 [Imipramine, reference compound]
- effect on sucrose intake in control animals (Male Wistar rats; control (unstressed) rats, 10 mg/kg ip daily, five weeks): no significant effect
- weeks of treatment after which sucrose intake was significantly increased from Week 0 scores (Male Wistar rats; stressed rats, 10 mg/kg ip daily): four
- sucrose intake after five weeks of treatment compared with controls (Male Wistar rats; stressed rats, 10 mg/kg ip daily, Week 5): no significant differences between drug-treated stressed animals and drug- and saline-treated controls
- effect on sucrose intake in stressed animals (Male Wistar rats; stressed rats, 10 mg/kg ip daily, five weeks): gradual increase of sucrose intake
- sucrose intake one week after withdrawal from the drug (Male Wistar rats; stressed rats, 10 mg/kg ip, one week after withdrawal): maintained at similar level

SMILES: COc1cccc(C(O)C2CCN(CCc3ccc(F)cc3)CC2)c1OC (stereo not drawn) [THE COMPOUND, (+)-α-(2,3-dimethoxyphenyl)-1-[2-(4-fluorophenyl)ethyl]-4-piperidinemethanol]
- effect on sucrose intake in control animals (Male Wistar rats; control (unstressed) rats, 0.002, 0.02 and 0.2 mg/kg orally daily, five weeks): no significant effect
- sucrose intakes one week after withdrawal from the treatment (Male Wistar rats; control and stressed rats, 0.002, 0.02 and 0.2 mg/kg orally, one week after withdrawal): not significantly changed
- weeks of treatment after which sucrose intake was significantly increased from initial scores (Week 0) (Male Wistar rats; stressed rats, 0.02 mg/kg orally daily): two
- amount of sucrose solution drunk at the end of treatment period (Week 5) (Male Wistar rats; stressed rats, 0.02 mg/kg orally daily, Week 5): comparable to that of vehicle-treated controls and significantly higher than that of vehicle-treated stressed animals
- weeks of treatment after which sucrose intake was significantly increased from initial scores (Week 0) (Male Wistar rats; stressed rats, 0.2 mg/kg orally daily): three
- amount of sucrose solution drunk at the end of treatment period (Week 5) (Male Wistar rats; stressed rats, 0.2 mg/kg orally daily, Week 5): comparable to that of vehicle-treated controls and significantly higher than that of vehicle-treated stressed animals
- effect on sucrose intake in stressed animals (Male Wistar rats; stressed rats, 0.002, 0.02 and 0.2 mg/kg orally daily, five weeks (overall Treatment effect)): gradually reversed the CMS-induced deficit in sucrose intake
- effect on sucrose intake throughout the whole treatment period (Male Wistar rats; stressed rats, lowest dose 0.002 mg/kg orally daily, five weeks): no significant effect
- affinity for the cholinergic M1/M2 receptors [1]: little affinity
- affinity for the D2 (dopamine) receptor (D2 (dopamine) receptor): greater than 100 nM
- affinity for the D1 (dopamine) receptor (D1 (dopamine) receptor): greater than 100 nM
- affinity for the α-1 receptor (α-1 receptor): greater than 100 nM
